PMC12040169 (PLOS Biology, 2025)

Experiment: in vitro
Settings: human, hela cells, % viability

| Compound | viability at 28.5 h, 10 µM |
| --- | --- |
| O=c1c([N+](=O)[O-])c[nH]c2nc(-c3ccncc3)nn12 [CBK288531N] | 87.8% |
| Cc1nc(N)sc1-c1csc(Nc2ccc(Cl)cn2)n1 [CBK288532] | 61.4% |
| O=[N+]([O-])c1ccc2c(c1)C(O)n1nc(-c3ccncc3)nc1S2 (centres unmarked) [CBK288533] | 94.7% |
| Fc1ccc(Cn2nnc(-c3ccncc3)n2)c(Cl)c1 [CBK288534] | 102% |
| O=c1oc2ccccc2c2nc(-c3ccncc3)ncc12 [CBK288536] | 108% |
| Nc1[nH]ncc1-c1nnc(Nc2ccc3c(c2)OCO3)o1 [CBK288537] | 85.1% |
| O=c1[nH]cccc1-c1noc(-c2cnccn2)n1 [CBK288538] | 90% |
| CSc1nnc2n3ncnc3c3c4c(sc3n12)CCCC4C (centres unmarked) [CBK288542] | 97.3% |
| O=C(Cc1nc(-c2ccncc2)n[nH]1)NC1CCCCC1 [CBK288544] | 110% |
| Cc1nc(-c2ccncc2)c2c(C)nn(-c3ccc(F)cc3)c2n1 [CBK288545] | 89.2% |
| Nc1ncnc2nc(-c3ccncc3)nn12 [CBK288550] | 102% |
| Cc1c(-c2ccnc(N3CCOCC3)n2)cnc2nc(-c3ccncc3)nn12 [CBK288551] | 98.6% |
| CC(=O)c1c(C)nc2nc(-c3ccncc3)nn2c1C [CBK288552] | 106% |
| CCN1CCCC1CNC(=O)C1(O)c2ccccc2NC(=O)N1c1ccccc1 (centres unmarked) [CBK288554] | 90.5% |
| CCNc1n[nH]c(N)c1-c1nc(-c2ccc(OC)cc2)no1 [CBK288557] | 94.2% |
| c1ccc2c(c1)OCC(c1nn3c(-c4ccncc4)nnc3s1)O2 (centres unmarked) [CBK288560] | 107% |
| CNc1nc(N(C)C)nc(-n2cnc(SCCOc3ccccc3C)n2)n1 [CBK288564] | 92.4% |
| Cc1ccc(N2CC(c3nc(-c4ccncc4)no3)CC2=O)cc1Cl (centres unmarked) [CBK288582] | 109% |
| O=C(NCc1ccc2c(c1)CCN2C(=O)c1ccncc1)c1cccnc1 [CBK288585] | 91.4% |
| O=C(NCc1ccc2c(c1)CCN2C(=O)c1ccncc1)c1cccc(F)c1 [CBK288586] | 102% |
| Cc1cc(N2CCOCC2)nc2ccc(NC(=O)c3ccncc3)cc12 [CBK288587] | 99.3% |

| Compound | viability at 28.5 h, 10 µM |
| --- | --- |
| Clc1ccc(Nc2nnc(-c3[nH]ncc3NCc3ccncc3)o2)cc1 [CBK288588] | 99% |
| COCCNC(=O)C1(O)c2ccccc2NC(=O)N1c1cccc(OC)c1 (centres unmarked) [CBK288589] | 110% |
| COc1cc(Nc2cc(-n3nc(C)cc3C)ncn2)cc(OC)c1OC [CBK288594] | 93.2% |
| CCOc1ccccc1-c1noc(-c2nn(-c3ccc(C)cc3)ccc2=O)n1 [CBK288597] | 95.7% |
| O=C(NCCc1nc2cccnc2n1-c1ccccc1)c1ccncc1 [CBK288599] | 90.7% |
| Fc1cc(F)cc(-c2nnc(Cc3nc(-c4ccncc4)no3)o2)c1 [CBK288602] | 98.6% |
| CCC(=O)Nc1ccc(-n2cnc(C(=O)NCc3cccnc3)c2)nc1 [CBK288603] | 115% |
| O=C(Cc1nnc(-c2ccncc2)o1)NCCC1=CCCCC1 [CBK288605] | 117% |
| Cc1c(-c2noc(-c3ccc4c(c3)OCO4)n2)nnn1Cc1ccccc1 [CBK288609] | 116% |
| COc1ccccc1CNc1nccc(-n2ccc(C)n2)n1 [CBK288611] | 111% |
| COc1cccc(CNc2nccc(-n3nc(C)cc3C)n2)c1 [CBK288612] | 96% |
| Cc1cc(C)n(-c2ccnc(NCc3cccnc3)n2)n1 [CBK288614] | 109% |
| Cc1cc(C)n(-c2ccnc(NCCc3cccnc3)n2)n1 [CBK288615] | 94.7% |
| Cc1cccc(Nc2nccc(-n3ccc(C)n3)n2)c1 [CBK288616] | 79.7% |
| CC(C)n1cnc2ccc(-c3noc(-c4nccc5ccccc45)n3)cc21 [CBK288617] | 109% |
| O=C(c1ccncc1)N1CCc2cc(-c3csc(C4CC4)n3)ccc21 [CBK288618] | 94.5% |
| c1cncc(CN2CCCC(OCc3nc(-c4ccncc4)no3)C2)c1 (centres unmarked) [CBK288621] | 114% |
| O=C(CN1C(=O)c2ccncc2C1=O)Nc1ccccn1 [CBK288624] | 89.9% |
| O=C(Nc1nc2ccccc2[nH]1)c1ccncc1 [CBK288626] | 95.3% |
| Cc1c(CNC(=O)c2cc(-c3ccncc3)nc3ccc(Cl)cc23)cnn1C [CBK288627] | 99.5% |
| c1ccc(-c2nnc(C3CCNCC3)[nH]2)nc1 [CBK288629G] | 97% |

| Compound | viability at 28.5 h, 10 µM |
| --- | --- |
| O=C(Nc1ccc2n(c1=O)C[C@H]1C[C@@H]2CN(C(=O)Cc2cccs2)C1)c1ccccc1 [CBK288709] | 82.4% |
| CC(=O)N1C[C@@H]2C[C@H](C1)c1ccc(NS(=O)(=O)c3cccc(F)c3)c(=O)n1C2 [CBK288710] | 105% |
| O=C(Nc1ccc(=O)n2c1[C@@H]1C[C@@H](CN(C(=O)COc3ccccc3)C1)C2)c1cncnc1 [CBK288712] | 109% |
| O=C(Nc1ccc(=O)n2c1[C@@H]1C[C@@H](CN(C(=O)c3ccc(F)cc3)C1)C2)c1cncnc1 [CBK288713] | 112% |
| CC(=O)N1CCN(CC[C@@H]2CC[C@H](O)[C@@H](C(=O)N(C)Cc3ccccc3)O2)CC1 [CBK288716] | 93.3% |
| CC(C)NC(=O)[C@H]1O[C@H](CCN2CCOCC2)CC[C@@H]1O [CBK288720] | 108% |
| O=C([C@H]1O[C@H](CCN2CCN(c3ccccc3)CC2)CC[C@@H]1O)N1CCOCC1 [CBK288724] | 98.5% |
| O=C(Nc1ccccc1)[C@H]1O[C@H](CCN2CCN(c3ccccc3)CC2)CC[C@@H]1O [CBK288725] | 84.1% |
| C#CCNC(=O)[C@H]1O[C@H](CCN(C)CC#C)CC[C@@H]1O [CBK288727] | 89.6% |
| C#CCNC(=O)[C@H]1O[C@H](CCN2CCOCC2)CC[C@@H]1O [CBK288729] | 102% |
| O=C([C@H]1O[C@H](CCN2CCN(c3ccccn3)CC2)CC[C@@H]1O)N1CCCC1 [CBK288730] | 83.3% |
| O=C(NCc1ccccc1)[C@H]1CN2CCC1C[C@@H]2Cn1cc(-c2ccc(F)cc2)nn1 (some centres unmarked) [CBK288736] | 87% |
| CC(C)(C)c1cn(C[C@H]2CC3CCN2C[C@@H]3C(=O)Nc2nccs2)nn1 (some centres unmarked) [CBK288737] | 87% |
| O=C(NC1CC1)[C@H]1CN2CCC1C[C@@H]2Cn1cc(-c2cccc(O)c2)nn1 (some centres unmarked) [CBK288738] | 79.8% |
| O=C(NC1CC1)[C@H]1CN2CCC1C[C@@H]2Cn1cc(CC2CCCCC2)nn1 (some centres unmarked) [CBK288739] | 103% |
| Cn1nc(C2CCCC2)cc1[C@H]1CN2CC[C@H]1C[C@@H]2CNC(=O)N1CCOCC1 [CBK288740] | 83.4% |
| Cn1nc(C2CCCC2)cc1[C@H]1CN2CC[C@H]1C[C@@H]2CNS(=O)(=O)c1ccccc1 [CBK288741] | 96.3% |
| CCNC(=O)NC[C@H]1C[C@@H]2CCN1C[C@@H]2c1cc(C2CCCC2)nn1C [CBK288743] | 93.6% |
| CC(C)NC(=O)NC[C@H]1C[C@@H]2CCN1C[C@@H]2c1cc(C2CCCC2)nn1C [CBK288744] | 96.5% |
| CC[C@H]1C[N@@]2CC[C@H]1C[C@@H]2CNS(=O)(=O)c1ccc(NC(C)=O)cc1 [CBK288745] | 82.9% |
| CC[C@H]1C[N@@]2CC[C@H]1C[C@@H]2CNS(=O)(=O)c1cccc2cccnc12 [CBK288747] | 90.6% |

| Compound | viability at 28.5 h, 10 µM |
| --- | --- |
| CC[C@H]1CN2CC[C@H]1C[C@@H]2CNC(=O)Nc1cccc(C#N)c1 [CBK288748] | 87.4% |
| C=C[C@H]1C[N@@]2CC[C@H]1C[C@@H]2CNS(=O)(=O)c1cccc(C#N)c1 [CBK288750] | 103% |
| C=C[C@H]1C[N@@]2CC[C@H]1C[C@@H]2CNS(=O)(=O)c1cccc2cccnc12 [CBK288751] | 98.2% |
| C#C[C@H]1C[N@@]2CC[C@H]1C[C@@H]2CNS(=O)(=O)c1cccc(C#N)c1 [CBK288753] | 106% |
| C#C[C@H]1C[N@@]2CC[C@H]1C[C@@H]2CNC(=O)Nc1ccc(C(C)=O)cc1 [CBK288755] | 114% |
| COc1ccc(-c2cc([C@H]3CN4CC[C@H]3C[C@@H]4CNC(C)=O)n(C)n2)cc1OC [CBK288757] | 86.3% |
| Cc1ccc(S(=O)(=O)NC[C@H]2C[C@@H]3CC[N@]2C[C@@H]3CN2CCOCC2)cc1 [CBK288758] | 94.2% |
| O=S(=O)(NC[C@H]1C[C@@H]2CC[N@]1C[C@@H]2CN1CCOCC1)c1cccs1 [CBK288759] | 90.7% |
| O=S(=O)(NC[C@H]1C[C@@H]2CCN1C[C@@H]2CN1CCOCC1)c1ccccc1 [CBK288760] | 92.9% |
| O=S(=O)(NC[C@H]1C[C@@H]2CC[N@]1C[C@@H]2CN1CCOCC1)c1ccc(Cl)cc1 [CBK288762] | 92.4% |
| COc1ccc(S(=O)(=O)NC[C@H]2C[C@@H]3CC[N@]2C[C@@H]3CN2CCCCC2)cc1 [CBK288764] | 98.9% |
| CC(=O)c1ccc(NC(=O)NC[C@H]2C[C@@H]3CC[N@]2C[C@@H]3CN2CCN(C)CC2)cc1 [CBK288768] | 116% |
| COc1ccc(S(=O)(=O)NC[C@H]2C[C@@H]3CC[N@]2C[C@@H]3CN2CCSCC2)cc1 [CBK288769] | 86.6% |
| COc1ccccc1N1CCN(C[C@H]2C[N@@]3CC[C@H]2C[C@@H]3CNS(C)(=O)=O)CC1 [CBK288770] | 87.5% |
| CC[C@H]1CN(C(=O)c2cccnc2)CC[C@H]1CC(=O)NCc1ccc2c(c1)OCO2 [CBK288771] | 87.7% |
| CC[C@H]1CN(C(=O)NC(C)C)CC[C@H]1CC(=O)Nc1nccs1 [CBK288774] | 109% |
| CC[C@H]1CN(C(=O)Nc2cccc(C(F)(F)F)c2)CC[C@H]1CC(=O)O [CBK288776] | 89.3% |
| CC[C@H]1CN(C(=O)Nc2ccccc2)CC[C@H]1CC(=O)N(C)CC#N [CBK288777] | 101% |
| CC[C@H]1CN(S(=O)(=O)c2c(C)noc2C)CC[C@H]1CC(=O)Nc1nccs1 [CBK288779] | 88.3% |
| CCCNC(=O)C[C@@H]1CCN(S(=O)(=O)c2c(C)noc2C)C[C@@H]1CC [CBK288780] | 103% |
